Key:
crabgrass, large = test: Test A pre-/postemergence herbicide test; assay type: in vivo, Digitaria sanguinalis; details: for Crabgrass, Large plant response rating: Preemergence, visual rating on 0 to 100 scale (0 no effect, 100 complete control)
Procedure, shortened: (§1)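 Greenhouse pot test with pre- and postemergence application of surfactant-containing solvent formulations. Postemergence plants were 2–10 cm, one- to two-leaf stage. Response scored visually after ~10 days, 0 (no effect) to 100 (complete control).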

corn = test: Test A pre-/postemergence herbicide test; assay type: in vivo, Zea mays; details: for Corn plant response rating: Preemergence, visual rating on 0 to 100 scale (0 no effect, 100 complete control)
Procedure, shortened: as §1

giant foxtail = test: Test A pre-/postemergence herbicide test; assay type: in vivo, Setaria faberii; details: for Foxtail, Giant plant response rating: Preemergence, visual rating on 0 to 100 scale (0 no effect, 100 complete control)
Procedure, shortened: as §1

sedge, umbrella = test: Test C flooded paddy test; assay type: in vivo, Cyperus difformis; details: Flood
Procedure, shortened: (§2)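 Visual injury scored against controls after 13 to 15 days in the greenhouse, using 0 (no effect) to 100 (complete control). Test compounds went straight into paddy water held 3 cm above the soil surface on 2-leaf-stage plants, with that flood depth maintained for the whole test.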

pigweed = test: Test A pre-/postemergence herbicide test; assay type: in vivo, Amaranthus retroflexus; details: for Pigweed plant response rating: Preemergence, visual rating on 0 to 100 scale (0 no effect, 100 complete control)
Procedure, shortened: as §1

barnyardgrass [1] = test: Test C flooded paddy test; assay type: in vivo, Echinochloa crus-galli; details: Flood
Excerpt: Plant species in the flooded paddy test consisted of rice (Oryza sativa), sedge, umbrella (small-flower umbrella sedge, Cyperus difformis), ducksalad (Heteranthera limosa), and barnyardgrass (Echinochloa crus-galli) grown to the 2-leaf stage for testing. At time of treatment, test pots were flooded to 3 cm above the soil surface, treated by application of test compounds directly to the paddy water, and then maintained at that water depth for the duration of the test. Treated plants and controls were maintained in a greenhouse for 13 to 15 days, after which time all species were compared to controls and visually evaluated. Plant response ratings, summarized in Table C, are based on a scale of 0 to 100 where 0 is no effect and 100 is complete control. A dash (-) response means no test result.

barnyardgrass [2] = test: Test A pre-/postemergence herbicide test; assay type: in vivo, Echinochloa crus-galli; details: for Barnyardgrass plant response rating: Preemergence, visual rating on 0 to 100 scale (0 no effect, 100 complete control)
Procedure, shortened: as §1

ducksalad = test: Test C flooded paddy test; assay type: in vivo, Heteranthera limosa; details: Flood
Procedure, shortened: as §2

wheat = test: Test A pre-/postemergence herbicide test; assay type: in vivo, Triticum aestivum; details: for Wheat plant response rating: Preemergence, visual rating on 0 to 100 scale (0 no effect, 100 complete control)
Procedure, shortened: as §1

velvetleaf = test: Test A pre-/postemergence herbicide test; assay type: in vivo, Abutilon theophrasti; details: for Velvetleaf plant response rating: Preemergence, visual rating on 0 to 100 scale (0 no effect, 100 complete control)
Procedure, shortened: as §1

morningglory = test: Test A pre-/postemergence herbicide test; assay type: in vivo, Ipomoea spp.; details: for Morningglory plant response rating: Preemergence, visual rating on 0 to 100 scale (0 no effect, 100 complete control)
Procedure, shortened: as §1

rice = test: Test C flooded paddy test; assay type: in vivo, Oryza sativa; details: Flood
Procedure, shortened: as §2

[3] = Postemergence, 125 g ai/ha, 0 to 100 scale, 0 no effect, 100 complete control
[4] = Postemergence, 500 g ai/ha, 0 to 100 scale (0 no effect, 100 complete control)
[5] = preemergence, 500 g ai/ha, 0 to 100 scale
[6] = 31 g ai/ha, scale of 0 to 100 where 0 is no effect and 100 is complete control, 13 to 15 days
[7] = 62 g ai/ha, scale of 0 to 100 where 0 is no effect and 100 is complete control, 13 to 15 days
[8] = 125 g ai/ha, scale of 0 to 100 where 0 is no effect and 100 is complete control, 13 to 15 days
[9] = preemergence, 500 g ai/ha, 0 to 100 scale (0 no effect, 100 complete control)

O=C1NCC(c2ccsc2)C1C(=O)Nc1ccccc1C(F)(F)F (racemic) [Compound 28]
Plant response rating, Crabgrass, Large (crabgrass, large; [3]): 20 | Plant response rating, Crabgrass, Large (crabgrass, large; [4]): 40 | Crabgrass, Large plant response rating (crabgrass, large; 125 g ai/ha): 30 | Plant response rating, Crabgrass, Large (crabgrass, large; [5]): 80 | Plant response rating, Corn (corn; [3]): 0 | Plant response rating, Corn (corn; [4]): 0 | Corn plant response rating (corn; 125 g ai/ha): 0 | Plant response rating, Corn (corn; [5]): 0 | Plant response rating, Foxtail, Giant (giant foxtail; [3]): 0 | Plant response rating, Foxtail, Giant (giant foxtail; [4]): 0 | Foxtail, Giant plant response rating (giant foxtail; 125 g ai/ha): 0 | Plant response rating, Foxtail, Giant (giant foxtail; [5]): 20 | Plant response rating, Sedge, Umbrella (sedge, umbrella; [6]): 0 | Plant response rating, Sedge, Umbrella (sedge, umbrella; [7]): 0 | Plant response rating, Sedge, Umbrella (sedge, umbrella; [8]): 0 | Plant response rating, Sedge, Umbrella (sedge, umbrella; 250 g ai/ha, scale 0 to 100): 0 | Plant response rating, Pigweed (pigweed; [3]): 0 | Plant response rating, Pigweed (pigweed; [4]): 0 | Pigweed plant response rating (pigweed; 125 g ai/ha): 0 | Plant response rating, Pigweed (pigweed; [5]): 0 | Plant response rating, Barnyardgrass (barnyardgrass [1]; [6]): 0 | Plant response rating, Barnyardgrass (barnyardgrass [1]; [7]): 0 | Plant response rating, Barnyardgrass (barnyardgrass [1]; [8]): 0 | Plant response rating, Barnyardgrass (barnyardgrass [1]; 250 g ai/ha, scale 0 to 100): 0 | Plant response rating, Barnyardgrass (barnyardgrass [2]; [3]): 0 | Plant response rating, Barnyardgrass (barnyardgrass [2]; [4]): 0 | Barnyardgrass plant response rating (barnyardgrass [2]; 125 g ai/ha): 0 | Plant response rating, Barnyardgrass (barnyardgrass [2]; [9]): 20 | Plant response rating, Ducksalad (ducksalad; [6]): 20 | Plant response rating, Ducksalad (ducksalad; [7]): 30 | Plant response rating, Ducksalad (ducksalad; [8]): 40 | Plant response rating, Ducksalad (ducksalad; 250 g ai/ha, scale 0 to 100): 85 | Plant response rating, Wheat (wheat; [3]): 0 | Plant response rating, Wheat (wheat; [4]): 0 | Wheat plant response rating (wheat; 125 g ai/ha): 0 | Plant response rating, Wheat (wheat; [5]): 0 | Plant response rating, Velvetleaf (velvetleaf; [4]): 0 | Velvetleaf plant response rating (velvetleaf; 125 g ai/ha): 0 | Plant response rating, Velvetleaf (velvetleaf; [5]): 0 | Plant response rating, Morningglory (morningglory; [3]): 0 | Plant response rating, Morningglory (morningglory; [4]): 0 | Morningglory plant response rating (morningglory; 125 g ai/ha): 0 | Plant response rating, Morningglory (morningglory; [5]): 0 | Plant response rating, Rice (rice; [6]): 0 | Plant response rating, Rice (rice; [7]): 0 | Plant response rating, Rice (rice; [8]): 0 | Plant response rating, Rice (rice; 250 g ai/ha, scale 0 to 100): 0

CC1NC(=O)C(C(=O)Nc2ccccc2F)C1c1ccc(F)c(F)c1 (mixture of isomers) [Compound 7]
Plant response rating, Crabgrass, Large (crabgrass, large; [3]): 30 | Plant response rating, Crabgrass, Large (crabgrass, large; [4]): 80 | Crabgrass, Large plant response rating (crabgrass, large; 125 g ai/ha): 80 | Plant response rating, Crabgrass, Large (crabgrass, large; [5]): 90 | Plant response rating, Corn (corn; [3]): 0 | Plant response rating, Corn (corn; [4]): 0 | Corn plant response rating (corn; 125 g ai/ha): 0 | Plant response rating, Corn (corn; [5]): 0 | Plant response rating, Foxtail, Giant (giant foxtail; [3]): 0 | Plant response rating, Foxtail, Giant (giant foxtail; [4]): 50 | Foxtail, Giant plant response rating (giant foxtail; 125 g ai/ha): 70 | Plant response rating, Foxtail, Giant (giant foxtail; [5]): 90 | Plant response rating, Sedge, Umbrella (sedge, umbrella; [6]): 0 | Plant response rating, Sedge, Umbrella (sedge, umbrella; [7]): 0 | Plant response rating, Sedge, Umbrella (sedge, umbrella; [8]): 0 | Plant response rating, Sedge, Umbrella (sedge, umbrella; 250 g ai/ha, scale 0 to 100): 0 | Plant response rating, Pigweed (pigweed; [3]): 0 | Plant response rating, Pigweed (pigweed; [4]): 0 | Pigweed plant response rating (pigweed; 125 g ai/ha): 0 | Plant response rating, Pigweed (pigweed; [5]): 0 | Plant response rating, Barnyardgrass (barnyardgrass [1]; [6]): 0 | Plant response rating, Barnyardgrass (barnyardgrass [1]; [7]): 0 | Plant response rating, Barnyardgrass (barnyardgrass [1]; [8]): 0 | Plant response rating, Barnyardgrass (barnyardgrass [1]; 250 g ai/ha, scale 0 to 100): 0 | Plant response rating, Barnyardgrass (barnyardgrass [2]; [3]): 20 | Plant response rating, Barnyardgrass (barnyardgrass [2]; [4]): 70 | Barnyardgrass plant response rating (barnyardgrass [2]; 125 g ai/ha): 20 | Plant response rating, Barnyardgrass (barnyardgrass [2]; [9]): 80 | Plant response rating, Ducksalad (ducksalad; [6]): 0 | Plant response rating, Ducksalad (ducksalad; [7]): 0 | Plant response rating, Ducksalad (ducksalad; [8]): 0 | Plant response rating, Ducksalad (ducksalad; 250 g ai/ha, scale 0 to 100): 0 | Plant response rating, Wheat (wheat; [3]): 0 | Plant response rating, Wheat (wheat; [4]): 0 | Wheat plant response rating (wheat; 125 g ai/ha): 0 | Plant response rating, Wheat (wheat; [5]): 0 | Plant response rating, Velvetleaf (velvetleaf; [3]): 0 | Plant response rating, Velvetleaf (velvetleaf; [4]): 0 | Velvetleaf plant response rating (velvetleaf; 125 g ai/ha): 0 | Plant response rating, Velvetleaf (velvetleaf; [5]): 0 | Plant response rating, Morningglory (morningglory; [3]): 0 | Plant response rating, Morningglory (morningglory; [4]): 0 | Morningglory plant response rating (morningglory; 125 g ai/ha): 0 | Plant response rating, Morningglory (morningglory; [5]): 0 | Plant response rating, Rice (rice; [6]): 0 | Plant response rating, Rice (rice; [7]): 0 | Plant response rating, Rice (rice; [8]): 0 | Plant response rating, Rice (rice; 250 g ai/ha, scale 0 to 100): 0

O=C1NCC(c2cccc(F)c2)C1C(=O)Nc1ccccc1F (racemic) [Compound 1]
Plant response rating, Crabgrass, Large (crabgrass, large; [3]): 30 | Plant response rating, Crabgrass, Large (crabgrass, large; [4]): 80 | Crabgrass, Large plant response rating (crabgrass, large; 125 g ai/ha): 90 | Plant response rating, Crabgrass, Large (crabgrass, large; [5]): 90 | Plant response rating, Corn (corn; [3]): 0 | Plant response rating, Corn (corn; [4]): 0 | Corn plant response rating (corn; 125 g ai/ha): 0 | Plant response rating, Corn (corn; [5]): 20 | Plant response rating, Foxtail, Giant (giant foxtail; [3]): 20 | Plant response rating, Foxtail, Giant (giant foxtail; [4]): 60 | Foxtail, Giant plant response rating (giant foxtail; 125 g ai/ha): 70 | Plant response rating, Foxtail, Giant (giant foxtail; [5]): 90 | Plant response rating, Sedge, Umbrella (sedge, umbrella; [6]): 0 | Plant response rating, Sedge, Umbrella (sedge, umbrella; [7]): 0 | Plant response rating, Sedge, Umbrella (sedge, umbrella; [8]): 0 | Plant response rating, Sedge, Umbrella (sedge, umbrella; 250 g ai/ha, scale 0 to 100): 0 | Plant response rating, Pigweed (pigweed; [4]): 0 | Pigweed plant response rating (pigweed; 125 g ai/ha): 0 | Plant response rating, Pigweed (pigweed; [5]): 0 | Plant response rating, Barnyardgrass (barnyardgrass [1]; [6]): 0 | Plant response rating, Barnyardgrass (barnyardgrass [1]; [7]): 0 | Plant response rating, Barnyardgrass (barnyardgrass [1]; [8]): 0 | Plant response rating, Barnyardgrass (barnyardgrass [1]; 250 g ai/ha, scale 0 to 100): 0 | Plant response rating, Barnyardgrass (barnyardgrass [2]; [3]): 50 | Plant response rating, Barnyardgrass (barnyardgrass [2]; [4]): 80 | Barnyardgrass plant response rating (barnyardgrass [2]; 125 g ai/ha): 30 | Plant response rating, Barnyardgrass (barnyardgrass [2]; [9]): 90 | Plant response rating, Ducksalad (ducksalad; [6]): 0 | Plant response rating, Ducksalad (ducksalad; [7]): 0 | Plant response rating, Ducksalad (ducksalad; [8]): 0 | Plant response rating, Ducksalad (ducksalad; 250 g ai/ha, scale 0 to 100): 0 | Plant response rating, Wheat (wheat; [4]): 0 | Wheat plant response rating (wheat; 125 g ai/ha): 0 | Plant response rating, Wheat (wheat; [5]): 0 | Plant response rating, Velvetleaf (velvetleaf; [4]): 0 | Velvetleaf plant response rating (velvetleaf; 125 g ai/ha): 0 | Plant response rating, Velvetleaf (velvetleaf; [5]): 0 | Plant response rating, Morningglory (morningglory; [4]): 0 | Morningglory plant response rating (morningglory; 125 g ai/ha): 0 | Plant response rating, Morningglory (morningglory; [5]): 0 | Plant response rating, Rice (rice; [6]): 0 | Plant response rating, Rice (rice; [7]): 0 | Plant response rating, Rice (rice; [8]): 0 | Plant response rating, Rice (rice; 250 g ai/ha, scale 0 to 100): 0

Source: patent US10294202B2, “Pyrrolidinones as herbicides” (FMC Corporation, priority 2013, dated 2019)
